Data from patent publication US10080366B2, “Agent for increasing sugar content in fruit” (RIKEN, priority 2012, dated 2018).
Where two headings read alike, the source gives them in different places.

Experiments:
[1] = system: clusters of grape (variety: Crimson); assay: Estimated transpiration ratio of grape clusters (Example 9); format: in vivo; conditions: 10 g/L; 8 days after treatment
[2] = system: harvested fruit of grape (variety: Barikan)
Protocol: The fruit of grape was maintained in an air-conditioned greenhouse (temperature: 25° C.), and measured for the mass over time. The sugar content of the fruit was measured before the application and 8 days after the application with a sugar content meter. Next, on the assumption that the change in the mass of the fruit was entirely due to the change in water content, calculated values of the amount of decrease in mass and the sugar content on the date (June 2) of the application were determined […] by using the following calculation formula. (Calculated as follows: the sugar content (%) calculated value))=the sugar content (%) before application×the mass (g) on the date of application/the mass (g) on the date of measurement))

Tomato = conditions: 6 days after treatment
Mikan = conditions: 6 days after treatment
[3] = system: fruit of grape (variety: Red Globe)
Protocol: An agent for increasing a sugar content in a fruit (containing Sorbon T-20 as a spreader/sticker at a final concentration of 200 μL/L) diluted with water to have a potassium hydrogen carbonate concentration of 10 g/L was prepared. The mass of fruit of grape (variety: Red Globe) purchased on the market was measured. Then, the prepared agent for increasing a sugar content in a fruit was applied by spraying to the fruit of grape. Then, the fruit of grape was allowed to stand in an air-conditioned greenhouse (temperature: 25° C.), and the mass was measured over time (date of application: Apr. 27, 2011; dates of test: May 2, 2011, May 6, 2011, May 9, 2011, May 11, 2011, May 13, 2011, and May 16, 2011). In addition, as a control, the mass of untreated grape was measured on each date of measurement in the same manner.
On the basis of the measured mass, the estimated amount (cumulative value) of transpiration and the estimated amount of transpiration per day were calculated. The results are shown in Tables 5 and 6 and FIGS. 10 and 11.
Note that the vertical axis in FIG. 10 represents the mass (g) of the fruit of grape on each of the dates of measurement per 100 g of the fruit of grape on the date of application, and the vertical axis in FIG. 11 represents the estimated amount (g) of transpiration on each of the dates of measurement per 100 g of the fruit of grape on the date of application. The estimated amount (g) of transpiration on each of the dates of measurement per 100 g of the fruit of grape on the date of application=(the mass (g) of the fruit of grape on the date of application−the mass (g) of the fruit of grape on the date of measurement)/the mass of the fruit of grape on the date of application×100

[4] = 10 g/L, 25° C., mass 100 g on date of application

SMILES: O=C([O-])C(O)C(O)C(=O)[O-].[K+].[K+] (racemic) [DL-Potassium tartrate, reference compound]
- Estimated transpiration ratio (%) Average [1]: 22%
- Estimated transpiration ratio (%) First [1]: 22%

SMILES: CC(O)C(=O)[O-].[Na+] (racemic) [DL-Sodium lactate, reference compound]
- Estimated transpiration ratio (%) Average [1]: 26%
- Estimated transpiration ratio (%) First [1]: 26%
- Estimated transpiration ratio (%) Second [1]: 25%

SMILES: N.N.O=C(O)O [Ammonium carbonate, reference compound]
- Estimated transpiration ratio (%) Average [1]: 26%
- Estimated transpiration ratio (%) First [1]: 25%
- Estimated transpiration ratio (%) Second [1]: 28%

SMILES: N.N.O=S(=O)(O)O [Ammonium sulfate, reference compound]
- Estimated transpiration ratio (%) Average [1]: 22%
- Estimated transpiration ratio (%) First [1]: 21%
- Estimated transpiration ratio (%) Second [1]: 23%

SMILES: [Ca+2].[Cl-].[Cl-] [Calcium chloride, reference compound]
- Sugar content (%) 8 days later, actually measured value ([2]; 10 g/L, 25° C.): 20.0%
- Mass (g) 6 days later (Jun. 8) [2, 4]: 86.3 g
- Mass (g) 8 days later (Jun. 10) [2, 4]: 81.9 g
- action to increase the sugar content in the fruit (comparison) ([2]; 10 g/L, 8 days): almost the same as that of the untreated group
- Sugar content (%) 8 days later, calculated value ([2]; 10 g/L, calculated from decrease in mass): 20.8%
- Sugar content (%) on date of application (Jun. 2) ([2]; before application): 17.0%

SMILES: O=P([O-])([O-])O.[K+].[K+] [Dipotassium hydrogen phosphate, dipotassium hydrogen phosphate]
- Estimated transpiration ratio (%) Average [1]: 28%
- Estimated transpiration ratio (%) First [1]: 28%

SMILES: O=P([O-])([O-])O.[Na+].[Na+] [Disodium hydrogen phosphate, disodium hydrogen phosphate]
- Estimated transpiration ratio (%) Average [1]: 31%
- Estimated transpiration ratio (%) First [1]: 35%
- Estimated transpiration ratio (%) Second [1]: 28%

SMILES: O=C([O-])CCC(=O)[O-].[Na+].[Na+] [Disodium succinate]
- Estimated transpiration ratio (%) Average [1]: 31%
- Estimated transpiration ratio (%) First [1]: 31%

SMILES: O=C([O-])[O-].[Mg+2] [Magnesium carbonate, magnesium carbonate]
- Estimated transpiration ratio (%) Average [1]: 32%
- Estimated transpiration ratio (%) First [1]: 32%

SMILES: [Cl-].[Cl-].[Mg+2] [Magnesium chloride, reference compound]
- Estimated transpiration ratio (%) Average [1]: 25%
- Estimated transpiration ratio (%) First [1]: 25%

SMILES: O=S(=O)([O-])[O-].[Mg+2] [Magnesium sulfate, reference compound]
- Estimated transpiration ratio (%) Average [1]: 23%
- Estimated transpiration ratio (%) First [1]: 23%

SMILES: CC(=O)[O-].[K+] [Potassium acetate, potassium acetate]
- Estimated transpiration ratio (%) Average [1]: 35%
- Estimated transpiration ratio (%) First [1]: 35%
- Estimated transpiration ratio (%) Second [1]: 35%

SMILES: [Cl-].[K+] [Potassium chloride, reference compound]
- Estimated transpiration ratio (%) Average [1]: 25%
- Estimated transpiration ratio (%) First [1]: 25%

SMILES: O=S(=O)([O-])[O-].[K+].[K+] [Potassium sulfate, reference compound]
- Estimated transpiration ratio (%) Average [1]: 24%
- Estimated transpiration ratio (%) First [1]: 24%

SMILES: CC(=O)[O-].O.O.O.[Na+] [Sodium acetate trihydrate]
- Estimated transpiration ratio (%) Average [1]: 34%
- Estimated transpiration ratio (%) First [1]: 35%
- Estimated transpiration ratio (%) Second [1]: 33%

SMILES: CC(=O)[O-].[Na+] [Sodium acetate, sodium acetate]
- Ratio (%) of decrease in body weight of fruit (Tomato; dilution ratio 50 (20 g/L)): 14.5%
- Ratio (%) of decrease in body weight of fruit (Tomato; dilution ratio 100 (10 g/L)): 15.6%
- Ratio (%) of decrease in body weight of fruit (Mikan; dilution ratio 50 (20 g/L)): 11.4%
- Ratio (%) of decrease in body weight of fruit (Mikan; dilution ratio 100 (10 g/L)): 11.2%

SMILES: O=C([O-])[O-].[Na+].[Na+] [Sodium carbonate, sodium carbonate]
- Estimated amount (g) of transpiration per 100 g of fruit on date of application ([3]; 5 days later): 14.1 g
- Mass (g) of fruit per 100 g of fruit on date of application ([3]; 5 days later (applied Apr. 27)): 85.9 g
- Estimated amount (g) of transpiration per 100 g of fruit on date of application ([3]; 9 days later): 24.1 g
- Mass (g) of fruit per 100 g of fruit on date of application ([3]; 9 days later): 75.9 g
- Estimated amount (g) of transpiration per 100 g of fruit on date of application ([3]; 12 days later): 30.3 g
- Mass (g) of fruit per 100 g of fruit on date of application ([3]; 12 days later): 69.7 g
- Estimated amount (g) of transpiration per 100 g of fruit on date of application ([3]; 14 days later): 34.6 g
- Mass (g) of fruit per 100 g of fruit on date of application ([3]; 14 days later): 65.4 g
- Estimated amount (g) of transpiration per 100 g of fruit on date of application ([3]; 16 days later): 38.7 g
- Mass (g) of fruit per 100 g of fruit on date of application ([3]; 16 days later): 61.3 g
- Estimated amount (g) of transpiration per 100 g of fruit on date of application ([3]; 19 days later): 44.5 g
- Mass (g) of fruit per 100 g of fruit on date of application ([3]; 19 days later): 55.5 g
- Estimated transpiration ratio (%) Average [1]: 32%
- Estimated transpiration ratio (%) First [1]: 32%
- Ratio (%) of decrease in body weight of fruit (Tomato; dilution ratio 100 (10 g/L)): 12.7%
- Ratio (%) of decrease in body weight of fruit (Mikan; dilution ratio 100 (10 g/L)): 10.4%

SMILES: [Cl-].[Na+] [Sodium chloride, reference compound]
- Estimated transpiration ratio (%) Average [1]: 22%
- Estimated transpiration ratio (%) First [1]: 22%

SMILES: O=C([O-])O.[Na+] [Sodium hydrogen carbonate, sodium hydrogen carbonate]
- Estimated amount (g) of transpiration per 100 g of fruit on date of application ([3]; 5 days later): 12.4 g
- Mass (g) of fruit per 100 g of fruit on date of application ([3]; 5 days later (applied Apr. 27)): 87.6 g
- Estimated amount (g) of transpiration per 100 g of fruit on date of application ([3]; 9 days later): 21.7 g
- Mass (g) of fruit per 100 g of fruit on date of application ([3]; 9 days later): 78.3 g
- Estimated amount (g) of transpiration per 100 g of fruit on date of application ([3]; 12 days later): 27.3 g
- Mass (g) of fruit per 100 g of fruit on date of application ([3]; 12 days later): 72.7 g
- Estimated amount (g) of transpiration per 100 g of fruit on date of application ([3]; 14 days later): 31.5 g
- Mass (g) of fruit per 100 g of fruit on date of application ([3]; 14 days later): 68.5 g
- Estimated amount (g) of transpiration per 100 g of fruit on date of application ([3]; 16 days later): 35.6 g
- Mass (g) of fruit per 100 g of fruit on date of application ([3]; 16 days later): 64.4 g
- Estimated amount (g) of transpiration per 100 g of fruit on date of application ([3]; 19 days later): 41.5 g
- Mass (g) of fruit per 100 g of fruit on date of application ([3]; 19 days later): 58.5 g
- Estimated transpiration ratio (%) Average [1]: 30%
- Estimated transpiration ratio (%) First [1]: 33%
- Estimated transpiration ratio (%) Second [1]: 28%
- Ratio (%) of decrease in body weight of fruit (Tomato; dilution ratio 100 (10 g/L)): 12.8%
- Ratio (%) of decrease in body weight of fruit (Mikan; dilution ratio 100 (10 g/L)): 11.4%

SMILES: O=C([O-])CC(O)(CC(=O)[O-])C(=O)[O-].[K+].[K+].[K+] [Tripotassium citrate]
- Estimated transpiration ratio (%) Average [1]: 30%
- Estimated transpiration ratio (%) First [1]: 32%
- Estimated transpiration ratio (%) Second [1]: 28%

SMILES: O=P([O-])([O-])[O-].[K+].[K+].[K+] [Tripotassium phosphate, tripotassium phosphate]
- Estimated amount (g) of transpiration per 100 g of fruit on date of application ([3]; 5 days later): 15.9 g
- Mass (g) of fruit per 100 g of fruit on date of application ([3]; 5 days later (applied Apr. 27)): 84.1 g
- Estimated amount (g) of transpiration per 100 g of fruit on date of application ([3]; 9 days later): 26.3 g
- Mass (g) of fruit per 100 g of fruit on date of application ([3]; 9 days later): 73.7 g
- Estimated amount (g) of transpiration per 100 g of fruit on date of application ([3]; 12 days later): 33.1 g
- Mass (g) of fruit per 100 g of fruit on date of application ([3]; 12 days later): 66.9 g
- Estimated amount (g) of transpiration per 100 g of fruit on date of application ([3]; 14 days later): 37.6 g
- Mass (g) of fruit per 100 g of fruit on date of application ([3]; 14 days later): 62.4 g
- Estimated amount (g) of transpiration per 100 g of fruit on date of application ([3]; 16 days later): 41.1 g
- Mass (g) of fruit per 100 g of fruit on date of application ([3]; 16 days later): 58.3 g
- Estimated amount (g) of transpiration per 100 g of fruit on date of application ([3]; 19 days later): 47.4 g
- Mass (g) of fruit per 100 g of fruit on date of application ([3]; 19 days later): 52.8 g
